Assay results from ChEMBL document CHEMBL3745637, “New hybrid molecules with anticonvulsant and antinociceptive activity derived from 3-methyl- or 3,3-dimethyl-1-[1-oxo-1-(4-phenylpiperazin-1-yl)propan-2-yl]pyrrolidine-2,5-diones” (Bioorg Med Chem, 2016).
Active and inactive are the calls of the source. No cut-off for these calls is given here.

Experiments:
Mus musculus [1] = experiment: Anticonvulsant activity in Swiss mouse assessed as protection against maximal electroshock-induced seizures at 100 mg/kg, ip pretreated for 2 hrs; assay type: functional, organism-based
Mus musculus [2] = experiment: Anticonvulsant activity in Swiss mouse assessed as protection against maximal electroshock-induced seizures at 300 mg/kg, ip pretreated for 0.25 hrs; assay type: functional, organism-based
Mus musculus [3] = experiment: Anticonvulsant activity in Swiss mouse assessed as protection against maximal electroshock-induced seizures at 300 mg/kg, ip pretreated for 2 hrs; assay type: functional, organism-based
Mus musculus [4] = experiment: Anticonvulsant activity in Swiss mouse assessed as protection against maximal electroshock-induced seizures at 100 mg/kg, ip pretreated for 0.25 hrs; assay type: functional, organism-based
[5] = Protective index, ratio of TD50 for neurotoxicity in ip dosed Swiss mouse to ED50 for anticonvulsant activity in ip dosed MES Swiss mouse model at 0.25 hrs; assay type: toxicity, organism-based; settings: in vivo, read-out: Ratio TD50/ED50
Mus musculus [6] = experiment: Antinociceptive activity in ip dosed Swiss mouse assessed as reduction of formalin-induced licking at MES ED50 pretreated for 0.25 hrs measured during 15 to 20 mins; assay type: functional; parameters: scale not given: the % may be the effect or the level left
Mus musculus [7] = experiment: Anticonvulsant activity in ip dosed Swiss mouse assessed as protection against maximal electroshock-induced seizures at 0.25 hrs; assay type: functional
Mus musculus [8] = experiment: Anticonvulsant activity in ip dosed Swiss mouse assessed as reduction in clonic seizures at 0.5 hrs by subcutaneous pentylenetetrazole seizure test; assay type: functional
Mus musculus [9] = experiment: Anticonvulsant activity against Swiss mouse seizure model assessed as protection at 100 mg/kg, ip pretreated for 0.25 hrs by 6 Hz psychomotor seizure test; assay type: functional, organism-based
Mus musculus [10] = experiment: Anticonvulsant activity against ip dosed Swiss mouse seizure model assessed as protection at 0.25 hrs by 6 Hz psychomotor seizure test; assay type: functional
[11] = Neurotoxicity in ip dosed Swiss mouse seizure model assessed as motor impairment pretreated for 0.25 hrs measured within 60 s by chimney test; assay type: toxicity, organism-based; settings: in vivo
Mus musculus [12] = experiment: Anticonvulsant activity in Swiss mouse assessed as protection against maximal electroshock-induced seizures at 300 mg/kg, ip pretreated for 0.5 hrs; assay type: functional, organism-based
Mus musculus [13] = experiment: Anticonvulsant activity in Swiss mouse assessed as reduction in clonic seizures at 100 mg/kg, ip pretreated for 2 hrs measured after 30 mins by subcutaneous pentylenetetrazole seizure test; assay type: functional, organism-based
[14] = Protective index, ratio of TD50 for neurotoxicity in ip dosed Swiss mouse to ED50 for anticonvulsant activity in ip dosed Swiss mouse 6 Hz psychomotor seizure model at 0.25 hrs; assay type: toxicity, organism-based; settings: in vivo, read-out: Ratio TD50/ED50
Mus musculus [15] = experiment: Antinociceptive activity in ip dosed Swiss mouse assessed as reduction of formalin-induced licking at MES ED50 pretreated for 0.25 hrs measured during 1 to 5 mins; assay type: functional; parameters: scale not given: the % may be the effect or the level left
Mus musculus [16] = experiment: Anticonvulsant activity against Swiss mouse seizure model assessed as protection at 100 mg/kg, ip pretreated for 2 hrs by 6 Hz psychomotor seizure test; assay type: functional, organism-based
Mus musculus [17] = experiment: Anticonvulsant activity in Swiss mouse assessed as protection against maximal electroshock-induced seizures at 300 mg/kg, ip pretreated for 1 hr; assay type: functional, organism-based
Mus musculus [18] = experiment: Toxicity in Swiss mouse assessed as death at 300 mg/kg, ip measured after 0.25 hrs; assay type: organism-based; settings: in vivo
Mus musculus [19] = experiment: Anticonvulsant activity in Swiss mouse assessed as protection against maximal electroshock-induced seizures at 100 mg/kg, ip pretreated for 1 hr; assay type: functional, organism-based
Mus musculus [20] = experiment: Anticonvulsant activity in Swiss mouse assessed as protection against maximal electroshock-induced seizures at 100 mg/kg, ip pretreated for 0.5 hrs; assay type: functional, organism-based
Mus musculus [21] = experiment: Anticonvulsant activity in ip dosed Swiss mouse assessed as protection against maximal electroshock-induced seizures at 0.5 hrs; assay type: functional
[22] = Neurotoxicity in ip dosed Swiss mouse seizure model assessed as motor impairment pretreated for 0.5 hrs measured within 60 s by chimney test; assay type: toxicity, organism-based; settings: in vivo
Mus musculus [23] = experiment: Anticonvulsant activity against ip dosed Swiss mouse seizure model assessed as protection at 0.5 hrs by 6 Hz psychomotor seizure test; assay type: functional
Mus musculus [24] = experiment: Anticonvulsant activity in ip dosed Swiss mouse assessed as reduction in clonic seizures at 0.25 hrs by subcutaneous pentylenetetrazole seizure test; assay type: functional

SMILES: CC1CC(=O)N(C(C)C(=O)N2CCN(c3ccccc3C(F)(F)F)CC2)C1=O (stereo not given)
- Activity (Mus musculus [1]): inactive
- Activity (Mus musculus [2]): Active
- Activity (Mus musculus [3]): inactive

SMILES: CC(C(=O)N1CCN(c2ccc(Cl)c(Cl)c2)CC1)N1C(=O)CC(C)(C)C1=O (stereo not given)
- Activity (Mus musculus [1]): inactive

SMILES: CC(C(=O)N1CCN(c2cccc(Cl)c2)CC1)N1C(=O)CC(C)(C)C1=O (stereo not given)
- Activity (Mus musculus [4]): Active
- selectivity ratio at 0.25 h [5]: 1.47
- Activity (Mus musculus [6]): 91%
- ED50 (Mus musculus [7]): 120 mg/kg
- Activity (Mus musculus [1]): inactive
- ED50 (Mus musculus [8]): > 130 mg/kg
- Activity (Mus musculus [2]): Active
- Activity (Mus musculus [9]): Active
- ED50 (Mus musculus [10]): 19.8 mg/kg
- TD50 at 0.25 h [11]: 176 mg/kg
- Activity (Mus musculus [12]): Active
- Activity (Mus musculus [13]): inactive
- selectivity ratio at 0.25 h [14]: 8.91
- Activity (Mus musculus [15]): 44%
- Activity (Mus musculus [16]): inactive

SMILES: CC1CC(=O)N(C(C)C(=O)N2CCN(C)CC2)C1=O (stereo not given)
- Activity (Mus musculus [2]): inactive
- Activity (Mus musculus [12]): inactive
- Activity (Mus musculus [17]): inactive
- Activity (Mus musculus [3]): inactive

SMILES: CC(C(=O)N1CCN(c2cccc(F)c2)CC1)N1C(=O)CC(C)(C)C1=O (stereo not given)
- Activity (Mus musculus [1]): inactive

SMILES: CC1CC(=O)N(C(C)C(=O)N2CCN(c3ccc(C(F)(F)F)cc3)CC2)C1=O (stereo not given)
- Activity (Mus musculus [18]): Toxic
- Activity (Mus musculus [2]): inactive

SMILES: CC(C(=O)N1CCN(c2ccc(F)cc2)CC1)N1C(=O)CC(C)(C)C1=O (stereo not given)
- Activity (Mus musculus [2]): inactive
- Activity (Mus musculus [3]): inactive

SMILES: Cc1cccc(N2CCN(C(=O)C(C)N3C(=O)CC(C)(C)C3=O)CC2)c1 (stereo not given)
- Activity (Mus musculus [4]): inactive
- Activity (Mus musculus [1]): inactive
- Activity (Mus musculus [19]): inactive
- Activity (Mus musculus [20]): inactive
- Activity (Mus musculus [3]): inactive

SMILES: CCC(C(=O)N1CCN(c2cccc(Cl)c2)CC1)N1C(=O)CC(C)(C)C1=O (stereo not given)
- Activity (Mus musculus [4]): inactive
- Activity (Mus musculus [1]): inactive
- Activity (Mus musculus [19]): inactive
- Activity (Mus musculus [20]): inactive

SMILES: CC1CC(=O)N(CC(=O)N2CCN(c3cccc(C(F)(F)F)c3)CC2)C1=O (stereo not given)
- ED50 (Mus musculus [21]): 80.6 mg/kg
- TD50 at 0.5 h [22]: 225 mg/kg
- ED50 (Mus musculus [8]): > 200 mg/kg
- ED50 (Mus musculus [23]): 52.3 mg/kg

SMILES: COc1cccc(N2CCN(C(=O)C(C)N3C(=O)CC(C)(C)C3=O)CC2)c1 (stereo not given)
- Activity (Mus musculus [4]): inactive
- Activity (Mus musculus [1]): inactive
- Activity (Mus musculus [19]): inactive
- Activity (Mus musculus [17]): inactive
- Activity (Mus musculus [20]): inactive
- Activity (Mus musculus [3]): inactive

SMILES: CC1CC(=O)N(C(C)C(=O)N2CCN(c3ccccc3)CC2)C1=O (stereo not given)
- Activity (Mus musculus [1]): inactive
- Activity (Mus musculus [19]): inactive
- Activity (Mus musculus [20]): inactive

SMILES: CC1CC(=O)N(C(C)C(=O)N2CCN(c3ccc(F)cc3)CC2)C1=O (stereo not given)
- Activity (Mus musculus [17]): inactive
- Activity (Mus musculus [3]): inactive

SMILES: CC1CC(=O)N(C(C)C(=O)N2CCN(c3ccc(Cl)cc3)CC2)C1=O (stereo not given)
- Activity (Mus musculus [3]): inactive

SMILES: CCC(C(=O)N1CCN(c2cccc(Cl)c2)CC1)N1C(=O)CC(C)C1=O (stereo not given)
- selectivity ratio at 0.25 h [5]: 1.91
- Activity (Mus musculus [6]): 93%
- ED50 (Mus musculus [24]): > 130 mg/kg
- ED50 (Mus musculus [7]): 117 mg/kg
- Activity (Mus musculus [1]): inactive
- Activity (Mus musculus [9]): Active
- ED50 (Mus musculus [10]): 43.5 mg/kg
- Activity (Mus musculus [19]): inactive
- TD50 at 0.25 h [11]: 223 mg/kg
- selectivity ratio at 0.25 h [14]: 5.13
- Activity (Mus musculus [15]): inactive
- Activity (Mus musculus [16]): inactive
- Activity (Mus musculus [3]): inactive

SMILES: CC(C(=O)N1CCN(c2cccc(Cl)c2Cl)CC1)N1C(=O)CC(C)(C)C1=O (stereo not given)
- Activity (Mus musculus [2]): inactive
- Activity (Mus musculus [12]): inactive
- Activity (Mus musculus [17]): inactive
- Activity (Mus musculus [3]): inactive
